Source: patent publication US11413278B2, “Compounds and methods for promoting stress resistance” (priority 2015, dated 2022)
Like-named read-outs stand apart in the source and are kept apart here.

Assays:
[1] = system: phosphorylated γH2A.X and TP53BP1; test: DNA damage marker analysis (immuno-staining); details: for activity at 10 µM: Homo sapiens, WI-38, 24 h
Method: WI-38 cells were seeded on 96-well plates and cultured for 24 hrs and then incubated with small molecules for another 24 hrs. As the positive control to damage DNA, H2O2 was supplemented at 700 μM final concentration for the last 3 hrs. Cells were washed with phosphate-buffered saline (PBS), fixed with 4% paraformaldehyde and then blocked with 5% normal goat serum (Cell Signaling), plus 0.3% Triton X-100, for 1 hr. Primary antibody cocktail (rabbit anti-phospho-histone γH2A.X (Ser-139), 1:100; anti-phospho-TP53BP1 (Ser-1778), 1:100), prepared in 1% BSA and 0.3% Triton X-100/PBS, was then introduced and incubated overnight at 4 C. Next day, samples were washed with PBS and further incubated with fluorophore-conjugated secondary antibody (1:1,000) for 1 hr in the dark. Samples were then washed and incubated with DAPI dye (Life Technologies) (4 μg/ml final concentration) for the last 10 minutes. Images were collected on an INCell Analyzer 2000 (GE) and analyzed with the Developer software.
WI-38 cells were seeded (˜8,000 cells per well) on 96-well plates and cultured for 24 hrs and then incubated with small molecules for another 24 hrs. Doxorubicin (300 nM, 24 hrs) and H2O2 (700 μM, 3 hrs) were also introduced as the positive controls to damage DNA. Cells were washed with phosphate-buffered saline (PBS), fixed with 4% paraformaldehyde for 30 min and then blocked with 5% normal goat serum (Cell Signaling) and 0.3% Triton X-100 for 1 hr. Primary antibody cocktail (Cell Signaling, rabbit anti-phospho-histone γH2A.X (Ser-139), 1:100; anti-phospho-TP53BP1 (Ser-1778), 1:100) was prepared in PBS with 1% BSA and 0.3% Triton X-100 and incubated overnight at 4° C. Next day, samples were washed with PBS and further incubated with fluorophore-conjugated secondary antibody (1:1,000) for 1 hr in dark. Samples were then washed and incubated with DAPI dye (Life Technologies) (4 μg/ml final concentration) for 30 minutes. Images were collected on the INCell Analyzer 2000 (10× objective) and analyzed with the Developer Toolbox.

[2] = system: human dermal fibroblast (HDF) primary cells; test: H2O2-resistance in primary human dermal fibroblasts; format: cell-based; details: for fold induction at 10 µM: Homo sapiens; for Assay 6: H2O2-resistant, at 10 uM, human dermal fibroblast (HDF) primary cells: YES/NO
[3] = system: PC12 cells expressing poly(Q)103-Htt-EGFP; test: Poly(Q) toxicity & viability analysis (cellular model of Huntington's disease); format: cell-based, rat; details: for M = Huntington's poly-Q toxicity attenuation: score; for K = Huntington's poly-Q toxicity attenuation: summary score
Method: Viability assays were performed as described before (Aiken et al., 2004). PC12 cells that stably express the inducible poly(Q)103-Htt-EGFP were grown in culture. […] Cell viability was analyzed 48 hrs later by measuring ATP content with CellTiter-Glo.
Toxic protein aggregation is a key feature of many age-related neurodegenerative diseases, including Alzheimer's and Huntington's disease (Caughey and Lansbury, 2003; Ross and Poirier, 2004). A number of animal models (Phillips et al., 2009) and cell models (Schlachetzki et al., 2013) have been established to study these diseases. For this purpose, PC12 rat pheochromocytoma cells display neuronal features and produce neurotransmitters and have been used extensively to study neuronal phenotypes, including synaptic transmission and neurological diseases. […] In this model, induced expression of poly(Q)103-Htt-EGFP could lead to the formation of aggregates and exert substantial toxicity in cells.

C. elegans = format: in vivo, Caenorhabditis elegans
Method: The worms were treated with the small molecules in liquid, with H2O2 (500 μM final concentration) added on day 4 of adulthood, and scored for viability everyday
FUdR was used to block progeny production. The molecules were analyzed in 96-well plates, with 4 wells for each small molecule. Multiple control wells with DMSO (0.2% final concentration) were included. […] Day 1 adults were transferred onto mini-plates, seeded with OP50 bacteria (UV-irradiated, kanamycin-treated) and supplemented with small molecules (˜60 μM final concentration, 0.2% DMSO). Worms were scored every other day. Cumulative survival was analyzed using the STATA software (log-rank test). […] The worms were treated with the small molecules in liquid, with H2O2 (500 μM final concentration) added on day 4 of adulthood, and scored for viability every day.

[4] = read-out: Experiment 1, H2A.X-P DNA damage foci staining (no H2O2 stress treatment), at 10 uM
[5] = read-out: Experiment 2, H2A.X-P DNA damage foci staining (no H2O2 stress treatment), at 10 uM
[6] = read-out: Experiment 2, H2A.X-P DNA damage foci staining (under H2O2 stress treatment), at 10 uM
[7] = read-out: Experiment 2, TP53BP1-P DNA damage foci staining (no H2O2 stress treatment), at 10 uM
[8] = read-out: Experiment 2, TP53BP1-P DNA damage foci staining (under H2O2 stress treatment), at 10 uM
[9] = negative point, cultured human cells
[10] = Experiment 1, HDF cells, read-out: Experiment 1, HDF cells (under H2O2 stress treatment), at 10 uM (fold change)
[11] = Experiment 2, HDF cells, read-out: Experiment 2, HDF cells (under H2O2 stress treatment), at 10 uM (fold change)

Row | Compound | activity at 10 µM [1, 4] [%] | activity at 10 µM [1, 5] [%] | activity at 10 µM [1, 6] [%] | activity at 10 µM [1, 7] [%] | activity at 10 µM [1, 8] [%] | fold induction at 10 µM [2, 10] | fold induction at 10 µM [2, 11] | Assay 6: H2O2-resistant, at 10 uM, human dermal fibroblast (HDF) primary cells [2] | M = Huntington's poly-Q toxicity attenuation [3] | K = Huntington's poly-Q toxicity attenuation [3] | P = Potential DNA-damaging ([1]; human, 24 h) | R = Potential DNA damaging ([1]; human, 24 h) | H2O2-resistance assay, 1st experiment (C. elegans; in vivo) | L = H2O2-resistance in worms (C. elegans; in vivo) | N = H2O2-resistance in woms (C. elegans; in vivo) | further results
1 | COc1ccc(C(=O)/C=C/c2ccc(F)cc2)c(OC)c1 [Gr-4A] | 80.2 | 75 | 105 | 155 | 287 | 7.16 | 2.35 | YES | 0 | 0 | – | – | – | – | – | R = Potential DNA damaging [1, 9]: 0; P = Potential DNA-damaging ([1]; summary score): 0; N = H2O2-resistance in woms (C. elegans; score): 0; L = H2O2-resistance in worms (C. elegans; summary score): 0
2 | COc1ccc(C(=O)/C=C/c2ccccc2Br)c(OC)c1 [Gr-4B] | 116 | 140 | 150 | 118 | 435 | 13.7 | 55.6 | YES | 0 | 0 | – | – | – | – | – | R = Potential DNA damaging [1, 9]: 0; P = Potential DNA-damaging ([1]; summary score): 0; N = H2O2-resistance in woms (C. elegans; score): 0; L = H2O2-resistance in worms (C. elegans; summary score): 0
3 | COc1ccc(C(=O)/C=C/c2cccc(Cl)c2)c(OC)c1 [Gr-4C] | 108 | 135 | 150 | 179 | 444 | 4.32 | 3.15 | YES | 0 | 0 | – | – | – | – | – | R = Potential DNA damaging [1, 9]: 0; P = Potential DNA-damaging ([1]; summary score): 0; N = H2O2-resistance in woms (C. elegans; score): 0; L = H2O2-resistance in worms (C. elegans; summary score): 0
4 | O=C(/C(=C/c1ccc(Cl)cc1)c1nc2ccccc2[nH]1)c1ccccc1 [Gr-4D] | 103 | 49.6 | 123 | 136 | 388 | 1.06 | 2 | YES | 0 | 0 | 0 | 0 | YES; | 0 | 0 | –
5 | CCc1ccc(Oc2nc3ccccn3c(=O)c2/C=C(\C#N)C(=O)NC2CCCCC2)cc1 [Gr-5A] | 105 | 115 | 127 | 147 | 548 | 2.95 | 2 | YES | 0 | 0 | 0 | 0 | YES; | 0 | 0 | –
6 | CCc1ccc(Oc2nc3ccccn3c(=O)c2/C=C(\C#N)C(=O)NCc2ccco2)cc1 [Gr-5B] | 100 | 128 | 168 | 223 | 540 | 9.16 | 13.3 | YES | 0 | 0 | 0 | 0 | – | 0 | 0 | –
7 | CNC(=O)/C(C#N)=C/c1c(Oc2ccc(C(C)(C)C)cc2)nc2ccccn2c1=O [Gr-5D] | 94.1 | 75 | 112 | 145 | 480 | 0.18 | 2.66 | YES | 0 | 0 | 0 | 0 | – | 0 | 0 | –
8 | Cc1cc(N)n(-c2ccccc2C(=O)O)n1 [Gr-6A] | 117 | 59.9 | 200 | 138 | – | 10.3 | 39.3 | YES | 0 | 0 | 0 | 0 | YES; | 0 | 0 | –
9 | O=C(/C=C/c1cn(-c2ccccc2)nc1-c1cccnc1)c1ccccc1 [Gr-6B] | 93.4 | 112 | 136 | 176 | 272 | 3.6 | 57.6 | YES | 1 | 1 | 0 | 0 | – | 0 | 0 | Viability of PC12 cells upon induction of toxic poly(Q)103-Htt-EGFP aggregates ([3]; 2.5 μM, 5 μM, 10 μM and 20 μM): consistently increased the viability; Assay 20: Huntington's poly-Q toxicity attenuation ([3]; 10 uM, YES/NO): YES
10 | N=C1S/C(=C\c2cn(-c3ccccc3)nc2-c2cccs2)C(=O)N1c1nccs1 [Gr-6C] | 181 | 300 | 43 | 290 | 440 | 0.01 | 50.6 | YES | 0 | 0 | 1 | 1 | – | 0 | 0 | –
11 | O=C(NCc1cccnc1)/C(=C\c1cccc(Oc2ccccc2)c1)S(=O)(=O)c1ccccc1 [Gr-7A] | 337 | 246 | 113 | 363 | 516 | 1.2 | 4.11 | YES | 0 | 0 | 0 | 0 | YES; | 1 | 1 | Protection of C. elegans from hydrogen peroxide (C. elegans; in vivo): could protect C. elegans from hydrogen peroxide
